EP0260606A2, “Medicament for curing neurotic disturbance or disorder comprising sialocylglycerolipid” (MECT CORPORATION, priority 1986, dated 1988)
Entries after “also recorded” stand apart in the source; their conditions may differ.

What was measured:
[1] = test system: Mice Having Their Nerves Damaged by Mercurialism; test: T-shaped labyrinth learning and memory in mice damaged by methylmercuric chloride; assay type: in vivo; settings: for number of mice that reached the standard / number of mice subjected to test: 40 mg/kg,i.p./day for 10 days after MMC 6 mg/kg/day; for average time required for running into the safety area: 40 mg/kg,i.p./day after MMC, average ± S.D.
Protocol: Male Balb/c mice of 7-weeks age were pre-trained in a T-shaped labylinth 3 times a week so that they learned to go straight from the starting area to the safety area. Then, a group of mice was orally administered methylmercuric chloride (hereinafter referred to as MMC) at a dose of 6 mg/kg/day for 7 days after the mice had reached 8-weeks age. A control group of mice was administered 0.l ml/l0 g/day of saline. The day after the completion of administration of MMC, the compound (I) of the invention was intraperitoneally administered at a dose of 40 mg/kg/day for l0 days. From the 23rd day, the training in the T-shape labylinth was restarted, and the running actions of the mice were observed. At the 7th day (29th day from the beginning of the experiment) and 8th day (30th day from the beginning of the experiment) from the re-starting of the training, the number of mice of each group, that could be subjected to test, was counted; and the number of mice that reached the standard (running into the safety area within 5 seconds) for 8 or more times per ten times trials was counted. In the following Table 6, the number of mice subjected to test is shown as the denominator, and the number of mice that reached the standard is shown as the numerator. Meanwhile, the decrease in number of mice was caused by death due to poisoning from MMC. Also shown in Table 6 are the average times (second) ± S.D. […] required for running into the safety area.

[2] = test system: neuroblastoma cell Neuro2a; test: Effect on the neuroblastoma cell Neuro2a (formation and growth of axis-cylinder process); assay type: cell-based; settings: for Length of Axis-cylinder Process / Number of Axis-cylinder Process: average ± S.E.
Protocol: The nervous cell used in the test was neuroblastoma cell Neuro2a which is readily available and can be cultured in a relatively simple manner.
Neuro2a was floated on a culture medium containing fetal cattle serum (hereinafter referred to as FCS), the culture medium consisting of 90% of Dubecco's Modified Eagle's Medium (hereinafter referred to as MEM) and l0% of FCS and added with l00 U/ml of penicillin G and l00 µg/ml of streptomycin sulfate, and cultured in a carbon dioxide cultivator at 37°C in an air containing 5% of carbon dioxide. The containers used were 60 mm polystyrene dishes, and each of the containers was incubated with l to 2 × l0⁴ cells followed by culturing for 48 hours prior to the test. […] After the lapse of 24 hours and 48 hours, the increase in cells formed with axis-cylinder process, the increase in number of axis-cylinder processes and the elongation of the length of the axis-cylinder process were measured.
The test was conducted while using three dishes for each concentration of each test material.

[3] = in consideration of the molecular weights, 48 hour cultivation

## CCCCCCCCCCCCCCOCC(COC1(C(=O)O)CC(O)C(NC(C)=O)C(C(O)C(O)CO)O1)OCCCCCCCCCCCCCC (centres unmarked) [Compound (I)]
[1]; 7th Day of re-started training, standard: safety area within 5 seconds in 8 or more of ten trials
  number of mice that reached the standard / number of mice subjected to test: 4/6
[1]; 7th Day
  average time required for running into the safety area: 2.5 ± 0.8 s
[1]; 8th Day of re-started training
  number of mice that reached the standard / number of mice subjected to test: 5/6
[1]; 8th Day
  average time required for running into the safety area: 3.1 ± 0.7 s
[1]; result in words
  remedy and restoration of learning and memory ability: had the effect of remedying and restoring the learning and memory ability
[2]; 24 hours, 0.01 µg/ml
  Number of Cells Formed with Axis-cylinder Process: 184
  Ratio of Cells Formed with Axis-cylinder Process: 44.7%
  Total Number of Cells: 412
  Length of Axis-cylinder Process: 107.5 ± 4.56 µm/cell
  Number of Axis-cylinder Process: 1.2 ± 0.03 per cell
[2]; 24 hours, 0.1 µg/ml
  Number of Cells Formed with Axis-cylinder Process: 188
  Ratio of Cells Formed with Axis-cylinder Process: 50.9%
  Total Number of Cells: 369
  Length of Axis-cylinder Process: 111.4 ± 4.60 µm/cell
  Number of Axis-cylinder Process: 1.2 ± 0.03 per cell
[2]; 24 hours, 1 µg/ml
  Number of Cells Formed with Axis-cylinder Process: 214
  Ratio of Cells Formed with Axis-cylinder Process: 63.5%
  Total Number of Cells: 337
  Length of Axis-cylinder Process: 158.7 ± 6.94 µm/cell
  Number of Axis-cylinder Process: 1.0 ± 0.02 per cell
[2]; 24 hours, 10 µg/ml
  Number of Cells Formed with Axis-cylinder Process: U.C.
  Total Number of Cells: U.C.
  Length of Axis-cylinder Process: U.C.
  Number of Axis-cylinder Process: U.C.
[2]; 48 hours, 0.01 µg/ml
  Number of Cells Formed with Axis-cylinder Process: 249
  Ratio of Cells Formed with Axis-cylinder Process: 50.7%
  Total Number of Cells: 491
  Length of Axis-cylinder Process: 117.1 ± 4.94 µm/cell
  Number of Axis-cylinder Process: 1.2 ± 0.03 per cell
[2]; 48 hours, 0.1 µg/ml
  Number of Cells Formed with Axis-cylinder Process: 258
  Ratio of Cells Formed with Axis-cylinder Process: 55.6%
  Total Number of Cells: 464
  Length of Axis-cylinder Process: 128.8 ± 5.71 µm/cell
  Number of Axis-cylinder Process: 1.2 ± 0.03 per cell
[2]; 48 hours, 1 µg/ml
  Number of Cells Formed with Axis-cylinder Process: 248
  Ratio of Cells Formed with Axis-cylinder Process: 61.4%
  Total Number of Cells: 404
  Length of Axis-cylinder Process: 154.7 ± 5.99 µm/cell
  Number of Axis-cylinder Process: 1.1 ± 0.03 per cell
[2]; 48 hours, 10 µg/ml
  Number of Cells Formed with Axis-cylinder Process: U.C.
  Total Number of Cells: U.C.
  Length of Axis-cylinder Process: U.C.
  Number of Axis-cylinder Process: 1 U.C.
[2]; Mus musculus, N2a, 48 hour cultivation
  minimal effective concentration: 0.01 µg/mL
[2]; [3]
  activity relative to GM₁: 500 times
  activity relative to GQ1b: 300 times
[2]; result in words, compared with the control group
  effect on growth of the axis-cylinder process: significant effect of promoting the growth of the axis-cylinder process; also recorded: extremely high activity for promoting growth or elongation of axis-cylinder process
